Assay results from BindingDB's records for doi:10.1002/cbic.201300625 (Indiana University, 2014).

Assays:
Test in all cases: IC50 Determination
[1] = target: T1, Aldehyde dehydrogenase, dimeric NADP-preferring (Homo sapiens, UniProt P30838)
T1 sequence (P30838 whole entry): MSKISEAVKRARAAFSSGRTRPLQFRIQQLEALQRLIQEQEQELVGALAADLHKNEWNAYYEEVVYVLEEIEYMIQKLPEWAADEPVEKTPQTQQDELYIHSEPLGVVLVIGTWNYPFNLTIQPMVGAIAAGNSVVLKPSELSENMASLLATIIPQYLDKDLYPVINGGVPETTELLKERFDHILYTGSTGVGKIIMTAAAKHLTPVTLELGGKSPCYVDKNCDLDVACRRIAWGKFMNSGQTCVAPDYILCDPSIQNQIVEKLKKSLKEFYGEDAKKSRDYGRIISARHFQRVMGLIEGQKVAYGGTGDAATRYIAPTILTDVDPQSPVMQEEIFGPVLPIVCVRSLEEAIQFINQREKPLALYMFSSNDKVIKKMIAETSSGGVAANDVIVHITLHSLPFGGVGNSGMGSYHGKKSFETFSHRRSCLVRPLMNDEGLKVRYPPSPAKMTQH
Protocol: (§1) To determine the IC50 values for CB29 and its analogues, propionaldehyde was used as the substrate for ALDH1A1 and ALDH2 and benzaldehyde was used as the substrate for ALDH3A1. The assays were performed at various concentrations of inhibitors, ranging from 50 nM to 250 uM, following 1 min preincubation. All reactions were initiated by the addition of the aldehyde substrate.

[2] = target: T2, Aldehyde dehydrogenase 1A1 (Homo sapiens, UniProt P00352)
T2 sequence (P00352 whole entry): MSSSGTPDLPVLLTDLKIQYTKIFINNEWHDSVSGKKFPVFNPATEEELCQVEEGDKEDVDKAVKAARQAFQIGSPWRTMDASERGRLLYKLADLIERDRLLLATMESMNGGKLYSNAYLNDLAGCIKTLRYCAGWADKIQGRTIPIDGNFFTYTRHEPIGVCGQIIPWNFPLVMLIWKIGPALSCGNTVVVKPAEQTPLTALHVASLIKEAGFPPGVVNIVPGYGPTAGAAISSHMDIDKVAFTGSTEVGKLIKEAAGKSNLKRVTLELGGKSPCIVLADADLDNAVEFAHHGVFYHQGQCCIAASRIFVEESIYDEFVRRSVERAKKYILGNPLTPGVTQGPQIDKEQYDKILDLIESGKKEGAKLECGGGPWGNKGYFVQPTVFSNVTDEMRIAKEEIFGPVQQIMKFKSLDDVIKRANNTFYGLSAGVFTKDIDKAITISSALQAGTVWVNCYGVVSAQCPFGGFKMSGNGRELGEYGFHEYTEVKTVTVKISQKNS
Protocol: as §1

[3] = target: T1, Aldehyde dehydrogenase, dimeric NADP-preferring; remark: listed apart in the source

| SMILES | IC50 [1] | IC50 [2] | Ki [3] |
| --- | --- | --- | --- |
| CS(=O)(=O)c1ccc(Nc2ccc(NCC3CCCC3)cc2)c(S(C)(=O)=O)c1 [CB29 (derivative 6)] | 40 µM | 32 µM |  |
| CC(=O)Nc1ccc(Nc2ccc(S(C)(=O)=O)cc2[N+](=O)[O-])cc1 [CB29] | 16 µM |  | 4.7 µM |
| CCN(CC)S(=O)(=O)c1ccc(Nc2ccc(NC(=O)C(C)C)cc2)c([N+](=O)[O-])c1 [CB29 (derivative 14)] | 100 µM | 8.3 µM |  |
| CC(Nc1ccc(S(C)(=O)=O)cc1[N+](=O)[O-])C(=O)O (configuration not stated) [CB29 (derivative 16)] |  | 50 µM |  |
| CN(C)c1ccc(Nc2ccc(S(=O)(=O)C(F)(F)F)cc2[N+](=O)[O-])cc1 [CB29 (derivative 5)] | 17 µM |  |  |
| CC(C)NS(=O)(=O)c1ccc(Nc2ccc3c(c2)CCC3)c([N+](=O)[O-])c1 [CB29 (derivative 18)] | 30.5 µM |  |  |
| CNS(=O)(=O)c1ccc(Nc2ccc(NC(=O)CC(C)C)cc2)c([N+](=O)[O-])c1 [CB29 (derivative 13)] | 42.3 µM | 11.6 µM |  |
| CC(=O)Nc1ccc(Oc2ccc(S(=O)(=O)C(F)(F)F)cc2[N+](=O)[O-])cc1 [CB29 (derivative 20)] | 100 µM |  |  |

Further molecules by falling IC50 [1], results first:

| IC50 [1] | IC50 [2] | SMILES | Ki [3] |
| --- | --- | --- | --- |
| 26.9 µM |  | CS(=O)(=O)c1ccc(Nc2ccc3c(c2)CCC3)c([N+](=O)[O-])c1 [CB29 (derivative 17)] |  |
| 26.3 µM |  | CC(C)NS(=O)(=O)c1ccc(Nc2cccc(NC3CC3)c2)c([N+](=O)[O-])c1 [CB29 (derivative 9)] |  |
| 25.6 µM |  | CC(C)NS(=O)(=O)c1ccc(NC2CCN(CC(=O)Nc3ccccc3)CC2)c([N+](=O)[O-])c1 [CB29 (derivative 19)] |  |
| 19.6 µM | 16.8 µM | CC(C)C(=O)Nc1ccc(Nc2ccc(S(C)(=O)=O)cc2[N+](=O)[O-])cc1 [CB29 (derivative 12)] |  |
